Experimental data from patent US9090593B2, “Bicyclic compounds as Pim inhibitors” (AMGEN INC., priority 2010, dated 2015).

Experiments:
[1] = target: T1, full length recombinant Pim-1 protein (Homo sapiens, UniProt P11309); experiment: Pim-1 enzyme assay (HTRF, phosphorylation of biotinylated-BAD (S112) peptide); format: biochemical; conditions: enzyme assay, Pim-1; read-out: Pim_1_IC50
T1 construct: by full length recombinant Pim-1, Pim-2, or Pim-3 protein; hexahistidine tag followed by a thrombin cleavage site (N); made in house; host or cells: Sf9 (baculovirus) or E. coli (pET28)
Method in brief: (§1)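 Recombinant full-length Pim-1 or Pim-2 was incubated with biotinylated BAD (S112) peptide in pH 7.0 Hepes buffer with BSA and DTT. After an EDTA stop, phosphopeptide was quantified by time-resolved FRET between a europium antibody and streptavidin-APC, and IC50 values came from 4-parameter logistic curves.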

[2] = target: T2, Pim-1 stably transfected into the U2OS human osteogenic sarcoma line (Homo sapiens, UniProt P11309); experiment: Pim cell assay, phospho-BAD normalized against total BAD, U2OS stably transfected with Pim-1; format: cell-based; conditions: U2OS cells stably transfected with Pim-1, phospho-BAD; high dose […]; read-out: Pim1_Cell_IC50
T2 construct: expressed in transfected cells; host or cells: U2OS human osteogenic sarcoma line
Method in brief: (§2)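 Read-out is phospho-BAD relative to total BAD, by MSD electrochemiluminescence on lysates, expressed as % phosphoprotein = (2×phospho)/(phospho+total)×100. Engineered U2OS lines carrying stably transfected Pim-1 or Pim-2 received 10-point compound dilutions at 0.3% final DMSO after overnight culture at 37 °C; DMSO-only wells served as high control.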

[3] = target: T3, Pim-2 stably transfected into the U2OS human osteogenic sarcoma line (Homo sapiens, UniProt Q9P1W9); experiment: Pim cell assay, phospho-BAD normalized against total BAD, U2OS stably transfected with Pim-2; format: cell-based; conditions: U2OS cells stably transfected with Pim-2, phospho-BAD; high dose […]; read-out: Pim2_Cell_IC50; also: high dose 31.6 µM
T3 construct: expressed in transfected cells; host or cells: U2OS human osteogenic sarcoma line
Method in brief: as §2

[4] = target: T4, full length recombinant Pim-2 protein (Homo sapiens, UniProt Q9P1W9); experiment: Pim-2 enzyme assay (HTRF, phosphorylation of biotinylated-BAD (S112) peptide); format: biochemical; conditions: enzyme assay, Pim-2; read-out: Pim2_IC50
T4 construct: by full length recombinant Pim-1, Pim-2, or Pim-3 protein; hexahistidine tag followed by a thrombin cleavage site (N); made in house; host or cells: Sf9 (baculovirus) or E. coli (pET28)
Method in brief: as §1

[5] = target: T5, full length recombinant Pim-3 protein (Homo sapiens, UniProt Q86V86); experiment: Pim-3 enzyme assay (HTRF, phosphorylation of biotinylated-BAD (S112) peptide); format: biochemical; conditions: read-out: Pim3 IC50
T5 construct: by full length recombinant Pim-1, Pim-2, or Pim-3 protein; purchased Millipore (UK)
Method in brief: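 HTRF read-out, streptavidin-APC plus Eu-labelled anti-phospho-BAD (S112) antibody, measures BAD peptide phosphorylation by full-length recombinant Pim-3. Buffer: 60 mM Hepes pH 7.0, 2 mM DTT, 0.05% BSA; EDTA (3 mM) stop. Percent of control per well, IC50 by 4-parameter logistic fit.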

T3 sequence (Q9P1W9 whole entry): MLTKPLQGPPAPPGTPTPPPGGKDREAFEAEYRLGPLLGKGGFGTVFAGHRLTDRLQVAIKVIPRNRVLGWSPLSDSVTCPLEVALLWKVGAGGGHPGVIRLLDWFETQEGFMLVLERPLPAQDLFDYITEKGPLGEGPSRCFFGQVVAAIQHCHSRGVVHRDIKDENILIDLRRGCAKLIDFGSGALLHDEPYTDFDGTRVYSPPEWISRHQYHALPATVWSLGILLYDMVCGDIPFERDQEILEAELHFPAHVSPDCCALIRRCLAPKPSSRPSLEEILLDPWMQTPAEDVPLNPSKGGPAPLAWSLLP
T4 sequence (Q9P1W9 whole entry): as above
T1 sequence (P11309 whole entry): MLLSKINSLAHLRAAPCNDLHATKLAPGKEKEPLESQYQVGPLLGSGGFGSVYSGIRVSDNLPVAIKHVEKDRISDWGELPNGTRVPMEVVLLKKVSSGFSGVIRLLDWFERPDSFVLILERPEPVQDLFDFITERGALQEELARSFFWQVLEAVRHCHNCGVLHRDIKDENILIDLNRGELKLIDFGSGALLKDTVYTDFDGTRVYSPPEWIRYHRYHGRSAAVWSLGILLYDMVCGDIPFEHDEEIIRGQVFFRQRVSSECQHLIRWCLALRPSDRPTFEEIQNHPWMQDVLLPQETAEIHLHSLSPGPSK
T2 sequence (P11309 whole entry): as above

For `CN1CCOc2cc(-c3ccc4[nH]nc(-c5cncc(N6CCC(N)CC6)n5)c4c3)cnc21` [Example 58, 1-(6-(5-(4-methyl-3,4-dihydro-2H-pyrido[3,2-b][1,4]oxazin-7-yl)-1H-indazol-3-yl)-2-pyrazinyl)-4-piperidinamine], the IC50 [1] was 2 nM, the IC50 [2] was 164 nM and the IC50 [3] was 6760 nM. The IC50 [4] was 11 nM and the IC50 [5] was 1 nM.
In the case of `CS(=O)(=O)c1ccc(-c2ccc3[nH]nc(-c4cncc(N5CCC(N)CC5)n4)c3c2)cc1` [Example 59, 1-(6-(5-(4-(methylsulfonyl)phenyl)-1H-indazol-3-yl)-2-pyrazinyl)-4-piperidinamine], the IC50 [1] is reported as 3 nM, the IC50 [2] is reported as 2160 nM and the IC50 [3] is reported as over 31600 nM. The IC50 [4] was 28 nM and the IC50 [5] was 11 nM.
Compound `N#Cc1ccccc1-c1ccc2[nH]nc(-c3cncc(N4CCC(N)CC4)n3)c2c1` [Example 60, 2-(3-(6-(4-amino-1-piperidinyl)-2-pyrazinyl)-1H-indazol-5-yl)benzonitrile] has an IC50 [1] of 5 nM, an IC50 [2] of 419 nM and an IC50 [3] of 12800 nM. For the same compound, the IC50 [4] was 36 nM and the IC50 [5] was 4 nM.
`COc1ccc(F)c(-c2ccc3[nH]nc(-c4cncc(N5CCC(N)CC5)n4)c3c2)c1` [Example 61, 1-(6-(5-(2-fluoro-5-methoxyphenyl)-1H-indazol-3-yl)-2-pyrazinyl)-4-piperidinamine] was tested, and the IC50 [1] was 10 nM, the IC50 [2] was 3010 nM and the IC50 [3] was over 31600 nM. It also gave an IC50 [4] of 65 nM and an IC50 [5] of 6 nM.
Work on `N#Cc1cccc(-c2ccc3[nH]nc(-c4cncc(N5CCC(N)CC5)n4)c3c2)c1` [Example 62, 3-(3-(6-(4-amino-1-piperidinyl)-2-pyrazinyl)-1H-indazol-5-yl)benzonitrile] yielded an IC50 [1] of 11 nM, an IC50 [2] of 599 nM and an IC50 [3] of over 31600 nM. For the same compound, the IC50 [4] was 59 nM and the IC50 [5] was 7 nM.
`COc1cccc(-c2ccc3[nH]nc(-c4cncc(N5CCC(N)CC5)n4)c3c2)n1` [Example 63, 1-(6-(5-(6-methoxy-2-pyridinyl)-1H-indazol-3-yl)-2-pyrazinyl)-4-piperidinamine] was tested, and the IC50 [1] was 11 nM, the IC50 [2] was 1690 nM and the IC50 [3] was over 31600 nM. It also gave an IC50 [4] of 161 nM and an IC50 [5] of 8 nM.
With `CC(C)Oc1cccc(-c2ccc3[nH]nc(-c4cncc(N5CCC(N)CC5)n4)c3c2)n1` [Example 64, 1-(6-(5-(6-(1-methylethoxy)-2-pyridinyl)-1H-indazol-3-yl)-2-pyrazinyl)-4-piperidinamine] the IC50 [1] was 20 nM, the IC50 [2] was 3020 nM and the IC50 [3] was over 31600 nM. The IC50 [4] was 150 nM and the IC50 [5] was 16 nM.
`CCOc1cccc(-c2ccc3[nH]nc(-c4cncc(N5CCC(N)CC5)n4)c3c2)n1` [Example 65, 1-(6-(5-(6-ethoxy-2-pyridinyl)-1H-indazol-3-yl)-2-pyrazinyl)-4-piperidinamine] gave an IC50 [1] of 13 nM, an IC50 [2] of 3530 nM and an IC50 [3] of over 31600 nM. The IC50 [4] was 274 nM and the IC50 [5] was 18 nM.
`NC1CCN(c2cncc(-c3n[nH]c4ccc(-c5cccc(F)n5)cc34)n2)CC1` [Example 66, 1-(6-(5-(6-fluoro-2-pyridinyl)-1H-indazol-3-yl)-2-pyrazinyl)-4-piperidinamine] showed an IC50 [1] of 4 nM, an IC50 [2] of 401 nM and an IC50 [3] of 17300 nM. It also gave an IC50 [4] of 33 nM and an IC50 [5] of 2 nM.
For `NC1CCN(c2cncc(-c3n[nH]c4ccc(-c5ccccc5F)cc34)n2)CC1` [Example 67, 1-(6-(5-(2-fluorophenyl)-1H-indazol-3-yl)-2-pyrazinyl)-4-piperidinamine], the IC50 [1] was 2 nM, the IC50 [2] was 380 nM and the IC50 [3] was 15000 nM. It also gave an IC50 [4] of 10 nM and an IC50 [5] of 1 nM.
For `NC1CCN(c2cncc(-c3n[nH]c4ccc(-c5cccnc5O)cc34)n2)CC1` [Example 68, 3-(3-(6-(4-amino-1-piperidinyl)-2-pyrazinyl)-1H-indazol-5-yl)-2-pyridinol], the IC50 [1] was 20 nM, the IC50 [2] was over 31600 nM and the IC50 [3] was over 31600 nM. The IC50 [4] was 88 nM and the IC50 [5] was 11 nM.
For `COc1cc(-c2ccc3[nH]nc(-c4cncc(N5CCC(N)CC5)n4)c3c2)c(F)cn1` [Example 70, 1-(6-(5-(5-fluoro-2-methoxy-4-pyridinyl)-1H-indazol-3-yl)-2-pyrazinyl)-4-piperidinamine], the IC50 [1] was 5 nM, the IC50 [2] was 255 nM and the IC50 [3] was over 31600 nM. For the same compound, the IC50 [4] was 18 nM and the IC50 [5] was 4 nM.
For `NC1CCN(c2cncc(-c3n[nH]c4ccc(-c5cccc(F)c5F)cc34)n2)CC1` [Example 71, 1-(6-(5-(2,3-difluorophenyl)-1H-indazol-3-yl)-2-pyrazinyl)-4-piperidinamine], the IC50 [1] was 3 nM, the IC50 [2] was 256 nM and the IC50 [3] was 8820 nM. For the same compound, the IC50 [4] was 11 nM and the IC50 [5] was 1 nM.
`NC1CCN(c2cncc(-c3n[nH]c4ccc(-c5ccccc5O)cc34)n2)CC1` [Example 72, 2-(3-(6-(4-amino-1-piperidinyl)-2-pyrazinyl)-1H-indazol-5-yl)phenol] was tested, and the IC50 [1] was 3 nM, the IC50 [2] was 533 nM and the IC50 [3] was over 31600 nM. For the same compound, the IC50 [4] was 82 nM and the IC50 [5] was 5 nM.
With `NC1CCN(c2cncc(-c3n[nH]c4ccc(-c5cc(=O)[nH]cc5Cl)cc34)n2)CC1` [Example 74, 4-(3-(6-(4-amino-1-piperidinyl)-2-pyrazinyl)-1H-indazol-5-yl)-5-chloro-2(1H)-pyridinone] the IC50 [1] was 14 nM, the IC50 [2] was over 31600 nM and the IC50 [3] was over 31600 nM. For the same compound, the IC50 [4] was 54 nM and the IC50 [5] was 15 nM.
`NC1CCN(c2cncc(-c3n[nH]c4ccc(-c5ccccc5)cc34)n2)CC1` [Example 75, 1-(6-(5-phenyl-1H-indazol-3-yl)-2-pyrazinyl)-4-piperidinamine] was tested, and the IC50 [1] was 7 nM, the IC50 [2] was 480 nM and the IC50 [3] was over 31600 nM. It also gave an IC50 [4] of 49 nM and an IC50 [5] of 3 nM.
`CS(=O)(=O)c1cccc(-c2ccc3[nH]nc(-c4cncc(N5CCC(N)CC5)n4)c3c2)c1` [Example 76, 1-(6-(5-(3-(methylsulfonyl)phenyl)-1H-indazol-3-yl)-2-pyrazinyl)-4-piperidinamine] gave an IC50 [1] of 16 nM, an IC50 [2] of 2740 nM and an IC50 [3] of over 31600 nM. It also gave an IC50 [4] of 187 nM and an IC50 [5] of 5 nM.
Compound `COc1cccc(-c2ccc3[nH]nc(-c4cncc(N5CCC(N)CC5)n4)c3c2)c1` [Example 77, 1-(6-(5-(3-methoxyphenyl)-1H-indazol-3-yl)-2-pyrazinyl)-4-piperidinamine] has an IC50 [1] of 6 nM, an IC50 [2] of 453 nM and an IC50 [3] of over 31600 nM. For the same compound, the IC50 [4] was 70 nM and the IC50 [5] was 3 nM.
`NC1CCN(c2cncc(-c3n[nH]c4ccc(-c5cccc(O)c5)cc34)n2)CC1` [Example 78, 3-(3-(6-(4-amino-1-piperidinyl)-2-pyrazinyl)-1H-indazol-5-yl)phenol] gave an IC50 [1] of 2 nM, an IC50 [2] of 885 nM and an IC50 [3] of 7970 nM. It also gave an IC50 [4] of 27 nM and an IC50 [5] of 1 nM.
Compound `NC1CCN(c2cncc(-c3n[nH]c4ccc(-c5ccn[nH]5)cc34)n2)CC1` [Example 80, 1-(6-(5-(1H-pyrazol-5-yl)-1H-indazol-3-yl)-2-pyrazinyl)-4-piperidinamine] has an IC50 [1] of 3 nM, an IC50 [2] of 2380 nM and an IC50 [3] of over 31600 nM. For the same compound, the IC50 [4] was 15 nM and the IC50 [5] was 1 nM.
With `Nc1cccc(-c2ccc3[nH]nc(-c4cncc(N5CCC(N)CC5)n4)c3c2)c1` [Example 81, 1-(6-(5-(3-aminophenyl)-1H-indazol-3-yl)-2-pyrazinyl)-4-piperidinamine] the IC50 [1] was 2 nM, the IC50 [2] was 395 nM and the IC50 [3] was 7170 nM. For the same compound, the IC50 [4] was 29 nM and the IC50 [5] was 3 nM.
Compound `NC1CCN(c2cncc(-c3n[nH]c4ccc(-c5ccccc5Cl)cc34)n2)CC1` [Example 83, 1-(6-(5-(2-chlorophenyl)-1H-indazol-3-yl)-2-pyrazinyl)-4-piperidinamine] has an IC50 [1] of 10 nM, an IC50 [2] of 1420 nM and an IC50 [3] of 22100 nM. For the same compound, the IC50 [4] was 34 nM and the IC50 [5] was 4 nM.
Compound `NC1CCN(c2cncc(-c3n[nH]c4ccc(-c5cc([N+](=O)[O-])ccc5F)cc34)n2)CC1` [Example 84, 1-(6-(5-(2-fluoro-5-nitrophenyl)-1H-indazol-3-yl)-2-pyrazinyl)-4-piperidinamine] has an IC50 [1] of 9 nM, an IC50 [2] of 253 nM and an IC50 [3] of over 31600 nM. The IC50 [4] was 45 nM and the IC50 [5] was 4 nM.
`NC1CCN(c2cncc(-c3n[nH]c4ccc(-c5cncc(F)c5)cc34)n2)CC1` [Example 85, 1-(6-(5-(5-fluoro-3-pyridinyl)-1H-indazol-3-yl)-2-pyrazinyl)-4-piperidinamine] gave an IC50 [1] of 5 nM, an IC50 [2] of 176 nM and an IC50 [3] of 7020 nM. For the same compound, the IC50 [4] was 36 nM and the IC50 [5] was 1 nM.
With `COc1cc(OC)cc(-c2ccc3[nH]nc(-c4cncc(N5CCC(N)CC5)n4)c3c2)c1` [Example 86, 1-(6-(5-(3,5-dimethoxyphenyl)-1H-indazol-3-yl)-2-pyrazinyl)-4-piperidinamine] the IC50 [1] was 6 nM, the IC50 [2] was 328 nM and the IC50 [3] was 20300 nM. It also gave an IC50 [4] of 60 nM and an IC50 [5] of 2 nM.
